Test results as given in PubChem BioAssay (NCI).
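Five compound concentrations were applied to cells in 96-well plates for 48 hours; endpoints were derived by simple linear interpolation of the resulting dose-response curve. GI50 is the concentration that inhibits growth by half. At the TGI there is no net growth.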

Key:
Experiment in all cases: NCI anticancer screen, dose series, 48 h
LOX IMVI melanoma = tested on: LOX IMVI melanoma
SK-MEL-2 melanoma = tested on: SK-MEL-2 melanoma
M14 melanoma = tested on: M14 melanoma
ACHN renal = tested on: ACHN renal
K-562 leukemia = tested on: K-562 leukemia
EKVX NSCLC = tested on: EKVX NSCLC
SF-295 CNS = tested on: SF-295 CNS
NCI-H522 lung = tested on: NCI-H522 lung
BT-549 breast = tested on: BT-549 breast
HS 578T breast = tested on: HS 578T breast

Row | Structure (SMILES) | TGI (LOX IMVI melanoma) | TGI (SK-MEL-2 melanoma) | TGI (M14 melanoma) | TGI (ACHN renal) | TGI (K-562 leukemia) | TGI (EKVX NSCLC) | TGI (SF-295 CNS) | TGI (NCI-H522 lung) | GI50 (LOX IMVI melanoma) | GI50 (BT-549 breast) | TGI (BT-549 breast) | GI50 (M14 melanoma) | GI50 (ACHN renal) | GI50 (HS 578T breast) | TGI (HS 578T breast) | GI50 (K-562 leukemia) | GI50 (NCI-H522 lung) | GI50 (EKVX NSCLC) | GI50 (SF-295 CNS) | GI50 (SK-MEL-2 melanoma)
1 | O=C(O)CNS(=O)(=O)c1ccc(NC(=O)c2ccc(F)cc2)cc1 | > 100 µM | > 100 µM | > 100 µM | > 100 µM | > 100 µM | > 100 µM | > 100 µM |  |  |  |  |  |  |  |  |  |  |  |  | 
2 | CC(=O)O[C@H]1CC[C@@]2(C)C(CC[C@]3(C)C2CC[C@]2(C)Oc4c(C)cc(O)cc4C[C@@H]23)C1(C)C (some centres undefined) | 23.8 µM | 21.4 µM | 27.5 µM | 17.5 µM | 29.3 µM | 46.9 µM | 5.09 µM | 21.5 µM |  |  |  |  |  |  |  |  |  |  |  | 
3 | Oc1ccc2occ3c2c1CCC3 | > 100 µM |  | > 100 µM | > 100 µM | > 100 µM | > 100 µM | > 100 µM |  |  |  |  |  |  |  |  |  |  |  |  | 
4 | O=c1[nH]c(=O)n(C2CC(O)C(CO)O2)cc1C(OCC(F)(F)F)OCC(F)(F)F (centres undefined) | > 100 µM | > 100 µM | > 100 µM | > 100 µM | > 100 µM | > 100 µM | > 100 µM | > 100 µM |  |  |  |  |  |  |  |  |  |  |  | 
5 | CCN(CC)c1ccc(N=C2C=C(C(=O)Nc3ccc(S(C)(=O)=O)cc3)C(=O)c3ccccc32)c(C)c1 | > 100 µM |  | > 100 µM | > 100 µM | > 100 µM | > 100 µM | 39.5 µM | > 100 µM | 7.98 µM | 0.831 µM | > 100 µM | 88.5 µM | > 100 µM | 1.87 µM | > 100 µM | 15.8 µM | 16.7 µM | 5.52 µM | 3.32 µM | 
6 | O=S(=O)([O-])[O-].[Cl-].[NH2-].[NH2-].[NH2-].[NH2-].[Ru+3].c1ccc(-c2cccnc2)cc1 | > 100 µM | > 100 µM | > 100 µM | > 100 µM | > 100 µM | > 100 µM | > 100 µM | > 100 µM | > 100 µM |  |  | > 100 µM | > 100 µM |  |  | > 100 µM | > 100 µM | > 100 µM | > 100 µM | > 100 µM
7 | CCN(CC)CC(=O)/C=C/c1ccc(C)cc1 | 34.4 µM |  | 32.2 µM | 35.1 µM | > 100 µM |  | 88.1 µM |  |  |  |  |  |  |  |  |  |  |  |  | 
8 | CCOCC(=O)N[C@H]1CCc2cc(OC)c(OC)c(OC)c2-c2ccc(SC)c(=O)cc21 | 69 µM |  | > 100 µM | > 35.7 µM | 12.5 µM | > 100 µM | 0.253 µM | < 0.01 µM |  |  |  |  |  |  |  |  |  |  |  | 
9 | CN(C)c1ccc(/C=C/C(=O)C(C)(C)C)cc1Br |  | 36.7 µM | 43.2 µM | > 100 µM | 86.3 µM | > 100 µM | > 100 µM | 31.9 µM |  |  |  |  |  |  |  |  |  |  |  | 
10 | C=CCC12CCC(=O)C=C1CCC1(C2)OCCO1 (centres undefined) |  | > 100 µM | > 100 µM | > 100 µM | > 100 µM | > 100 µM |  | > 100 µM |  |  |  |  |  |  |  |  |  |  |  | 
11 | COc1ccc(-c2nsc3c2NC(=O)CC3c2ccc3c(c2)OCO3)cc1 (centres undefined) |  |  | > 100 µM | > 100 µM | > 100 µM |  | 25.9 µM | 3.57 µM |  | 2.54 µM | > 100 µM | 0.715 µM | 3.14 µM | 2.06 µM | 54.5 µM | 0.408 µM | 0.464 µM |  | 1.92 µM | 
12 | Cc1cc2c(cc1C)[n+](=O)c(C(=O)/C=C/c1ccc(Cl)cc1)c(C)n2[O-] | 50.4 µM | 79.1 µM | 54.1 µM | 62 µM | > 100 µM | > 100 µM | 69.3 µM | 50.4 µM |  |  |  |  |  |  |  |  |  |  |  | 
13 | COC(=O)Nc1nc2ccc(Oc3ccc(NC(=O)Nc4cccc(Br)c4)cc3)cc2[nH]1 | > 11.9 µM |  | > 17.8 µM | > 25 µM | > 12 µM | > 25 µM | > 19.2 µM | 2.7 µM | 2.32 µM | 11.3 µM | > 25 µM | 2.12 µM | 5.53 µM | 3.16 µM | > 19.8 µM | 0.162 µM | 0.351 µM | 8.28 µM | 1.18 µM | 
14 | O=C(CC1(O)C(=O)Nc2ccc(Br)cc21)c1ccc(Cl)cc1 (centres undefined) | 38.2 µM | > 100 µM | > 100 µM | > 100 µM | > 100 µM | > 100 µM | > 100 µM | > 100 µM |  |  |  |  |  |  |  |  |  |  |  | 
15 | CC1CCC2(NC1)OC1CC3[C@@H]4CC=C5C=CCC[C@]5(C)C4CC[C@]3(C)C1C2C (some centres undefined) | 33.6 µM | 35.2 µM | 50.9 µM | 44.6 µM | 46.6 µM | 55.5 µM | 52.8 µM |  |  |  |  |  |  |  |  |  |  |  |  | 
16 | NC1CCCCC1N.O=C([O-])P(=O)([O-])[O-].[Na+].[Pt+4] (centres undefined) | > 100 µM |  | > 100 µM | > 100 µM | > 100 µM | > 100 µM | > 100 µM |  | > 100 µM |  |  | > 100 µM | > 100 µM |  |  | > 100 µM |  | > 100 µM | > 100 µM | 
17 | O=C(Cn1c(=O)c(-c2ccccc2)nc2ccccc21)c1cccnc1 | > 100 µM | > 100 µM | > 100 µM | > 100 µM | > 100 µM | > 100 µM | > 100 µM | > 100 µM | > 100 µM |  |  | > 100 µM | > 100 µM | > 100 µM | > 100 µM | > 100 µM | > 100 µM | > 100 µM | > 100 µM | > 100 µM
18 | O=c1[nH]c(-c2ccccc2)nc2ccc(Cl)cc12 |  | > 100 µM |  | > 100 µM | > 100 µM | > 100 µM | > 100 µM | 95.7 µM |  |  |  |  |  |  |  |  |  |  |  | 
19 | NC(N)=N/N=C/c1c(-c2cccs2)nc2sccn12 | 27 µM |  | 30.2 µM | 26.5 µM | 21.5 µM | 19.1 µM | 23.6 µM |  | 14 µM | 19.3 µM | 33.6 µM | 16.6 µM | 13.2 µM |  |  | 6.49 µM |  | 6.32 µM | 11.5 µM | 
20 | CCNc1c(C(=O)N(CC)CC)c(=O)[nH]c2ncccc12 | > 100 µM | > 100 µM | > 100 µM | > 100 µM | > 100 µM | > 100 µM | > 100 µM | > 100 µM |  |  |  |  |  |  |  |  |  |  |  | 
21 | Cc1ccc(C(=O)O/N=C2/CCCCC2CN(C)C)cc1 (centres undefined) | > 100 µM | > 100 µM | > 100 µM | > 100 µM | > 100 µM | > 100 µM | > 100 µM | > 100 µM |  |  |  |  |  |  |  |  |  |  |  | 
